Assay results from patent US6852501B2, “Methods for determining ATPase activity and uses thereof” (Boehringer Ingelheim (Canada) Ltd., priority 1999, dated 2005).
Where two headings read alike, the source gives them in different places.

Assays:
[1] = biological target: T1, HPV-11 E1 (Human papillomavirus 11, UniProt P04014); assay: E1 ATPase SPA kinetic analysis (Km/Ki); assay type: biochemical, human papilloma virus
T1 construct: polyhistidine; made in house; host or cells: baculovirus-infected insect cells
From the text: Polyhistidine-tagged HPV-11 E1 was expressed in baculovirus-infected insect cells and purified by Ni-affinity chromatography as described in WO 99/57283 (incorporated herein by reference).
ATPase time-courses were run at different concentrations of ATP in order to determine the kinetic parameter Km(ATP) for HPV-11 E1. Reactions were run under similar conditions in both experiments, using the procedures given in Examples 1 and 2, except that the concentration of Igepal-CA630 was 0.01% rather than 0.005% and with experiment-specific changes noted below. The E1 concentration was 2 nM and the ATP concentrations ranged from 3-75 μM (TLC) or 2-50 μM (SPA), with the MgOAc concentration equal to the ATP concentration plus 0.5 mM. Stock solutions of ATP at each concentration were obtained by diluting the highest concentration solution with buffer containing 0.5 mM MgOAc; thus a constant ratio of radiolabeled to unlabeled ATP was used for all reactions. Reaction rates were measured by taking time-points from 10 or 20 to 120 minutes. To insure initial velocity conditions, time-points giving greater than 20% conversion were not used for analysis.
Total reaction volumes were 150 μL. For each time-point, 20 μL of reaction mixture was removed and combined with 40 μL of ammonium molybdate/SPA bead mixture followed by 80 μL of CsCl/citric acid. All reactions were run in triplicate. Plates were counted after overnight incubation. At the last time-point, an additional 20 μL aliquot was removed and combined with 10 μL 0.5 M EDTA. In this case, the conversion of ATP to phosphate was quantified by TLC, and the concentration of phosphate determined by TLC was compared to the cpm from the SPA procedure, after subtraction of blanks in both cases. The relationship between phosphate concentration and cpm is linear and the slope of the line was used to convert cpm values from SPA detection to concentration of phosphate produced. Rates of phosphate production at each ATP concentration were fit by nonlinear regression to the Michaelis-Menten equation using the program Grafit (V 3.01, R. Leatherbarrow).
The γ-thio phosphate analog of ATP inhibits many ATPases by a competitive mechanism. Experimental determination of the mechanism of inhibitor action requires measuring initial velocities for a number of substrate and inhibitor concentrations. The number of data points needed (several hundred) and the precision required for this experiment mean that performing the experiment by TLC detection is much more difficult and tedious. The SPA procedure works well, however. For this experiment, ATP concentrations of 5, 10, 20 and 40 μM were used, along with inhibitor concentrations of 0, 3, 6, 12 and 24 μM. Reactions were run as described for Example 9 (SPA detection). Data were processed as above and fit by nonlinear regression to an equation for competitive inhibition using GraFit. […] The plot was generated in Excel using the fitted parameters for the lines and the experimental values for points. For comparison, the data were also fit to an equation for non-competitive inhibition (equal binding of inhibitor to enzyme and enzyme-substrate complexes). […] Because of the quality of the data obtained it is possible to observe a systematic deviation between the experimental and fitted values for this second mechanism, especially at higher inhibitor concentrations.

[2] = biological target: HPV-6a ATPase activity (HPV-6 E1) (Human papillomavirus type 6a, UniProt Q84293); assay: E1 ATPase scintillation proximity assay, IC50 curves; assay type: biochemical, human papilloma virus; conditions: nonlinear regression; 1 μM ATP, 6 nM HPV-6 E1, 75 minutes, SPA detection; read-out: IC50 for inhibition of HPV-6a ATPase activity
Description: Radiolabeled [γ-^33P]ATP (NEN) was prepared upon receipt by diluting it 100-fold in the reaction buffer and storing it at −80° C. Material stored in this way was good for greater than one month. E1 ATPase reactions were run in a buffer consisting of 20 mM HEPES, pH 7.5, 0.05 mM EDTA and 1 mM DTT, and 0.05% Igepal CA-630 (equivalent to Nonidet P40). Volumes and concentrations given below are typical, but these can be varied somewhat with minimal effect on results, as shown in later examples. One μM ATP (Amersham Pharmacia) and 500 μM MgOAc were mixed with [γ-^33P]ATP at 100-fold dilution from the stored material (10,000 dilution from the stock), or approximately 1 nCi/μL when fresh. The actual ATP concentration contributed by [γ-^33P]ATP was approximately 1 nM; this amount could be reduced further if necessary. […]
At the desired time, 40 μL reactions were stopped by adding 20 PL of a SPA bead-AmMo mixture. […] The extent of phosphate production was then determined by scintillation counting using the TopCount (Packard). If desired, cpm can be converted to phosphate concentration by comparison of SPA results to those determined by TLC (see below) for identical reactions. […]
All solutions are made in the assay buffer described in Example 3 except that the assay buffer also contained 0.005% Igepal CA-630. […] After mixing briefly, plates were left for 90 minutes and then counted on a TopCount. […]

T1 sequence (P04014 whole entry): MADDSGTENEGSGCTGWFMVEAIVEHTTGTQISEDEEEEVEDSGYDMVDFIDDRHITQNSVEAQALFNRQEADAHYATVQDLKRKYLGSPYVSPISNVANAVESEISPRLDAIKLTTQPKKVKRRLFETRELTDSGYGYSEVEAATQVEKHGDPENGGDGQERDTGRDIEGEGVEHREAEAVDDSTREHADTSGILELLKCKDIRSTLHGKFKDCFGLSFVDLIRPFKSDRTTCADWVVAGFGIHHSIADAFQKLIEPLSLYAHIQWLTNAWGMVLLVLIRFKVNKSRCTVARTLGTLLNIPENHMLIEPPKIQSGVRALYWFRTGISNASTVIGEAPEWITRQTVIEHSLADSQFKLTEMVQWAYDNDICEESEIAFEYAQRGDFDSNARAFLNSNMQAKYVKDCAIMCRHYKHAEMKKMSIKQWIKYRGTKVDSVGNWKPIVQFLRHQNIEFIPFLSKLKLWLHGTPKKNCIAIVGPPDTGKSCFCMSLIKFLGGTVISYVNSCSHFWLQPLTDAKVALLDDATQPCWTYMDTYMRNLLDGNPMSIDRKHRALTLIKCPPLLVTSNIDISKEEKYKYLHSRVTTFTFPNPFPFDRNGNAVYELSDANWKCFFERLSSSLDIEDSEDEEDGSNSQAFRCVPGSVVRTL
HPV-6a ATPase activity (HPV-6 E1), sequence (Q84293 whole entry): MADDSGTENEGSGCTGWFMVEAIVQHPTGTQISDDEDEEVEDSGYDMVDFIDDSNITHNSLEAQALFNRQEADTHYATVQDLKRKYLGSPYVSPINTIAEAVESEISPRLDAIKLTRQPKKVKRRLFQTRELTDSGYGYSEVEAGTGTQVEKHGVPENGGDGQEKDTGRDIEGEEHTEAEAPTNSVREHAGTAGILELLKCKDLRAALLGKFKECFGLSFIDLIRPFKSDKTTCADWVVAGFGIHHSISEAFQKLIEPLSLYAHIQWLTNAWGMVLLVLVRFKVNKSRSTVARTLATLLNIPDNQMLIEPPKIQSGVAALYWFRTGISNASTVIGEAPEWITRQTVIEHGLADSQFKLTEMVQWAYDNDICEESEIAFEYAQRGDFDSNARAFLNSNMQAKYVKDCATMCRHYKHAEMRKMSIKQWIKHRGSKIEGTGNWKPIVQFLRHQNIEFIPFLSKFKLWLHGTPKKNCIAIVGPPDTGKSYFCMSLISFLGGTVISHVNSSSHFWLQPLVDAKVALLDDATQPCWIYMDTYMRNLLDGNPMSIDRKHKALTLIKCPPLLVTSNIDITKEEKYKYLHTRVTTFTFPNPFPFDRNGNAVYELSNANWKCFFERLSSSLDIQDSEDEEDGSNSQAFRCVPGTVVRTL

Row | Compound | Km ([1]; background statement, measured in the absence of DNA, read-out: Km (ATP) of the HPV-11 E1 ATPase) [µM] | Km ([1]; fit to competitive inhibition, read-out: Km(ATP)) [µM] | Km ([1]; fit to non-competitive inhibition, read-out: Km(ATP)) [µM] | IC50 [2] [µM] | mechanism of inhibition ([1]; comparison of competitive and noncompetitive fits) | Ki(ATP-γ-S) ([1]; fit to non-competitive inhibition (equal binding to enzyme and enzyme-substrate complexes)) [µM]
1 | Nc1ncnc2c1ncn2[C@@H]1O[C@H](COP(=O)(O)OP(=O)(O)OP(=O)(O)O)[C@@H](O)[C@H]1O [ATP] | ~10 | 6.7 ± 0.7 | 12 ± 2 | – | – | –
2 | adenosine-5′-O-(3-thiotriphosphate) [ATP-γ-S] | – | – | – | 8 ± 1.6 | the competitive model is more appropriate | 16 ± 2
